{"source": "patent US20090191293A1", "about": "“Composition for enhancing immunity and reducing inflammation related to infections” (IOMEDI DEVELOPMENT INTERNATIONAL, SRL, priority 2007, published 2009)", "origin": "cited, not measured here", "key": {"[1]": {"tested_on": "NF-κB dependent signaling pathway", "conditions": "lipopolysaccharide-induced inflammation"}, "[2]": {"tested_on": "arachidonic acid inflammatory reactions"}, "[3]": {"tested_on": "LPS-Stimulated Monocytes/Macrophages"}, "NF-κB": {"tested_on": "NF-κB", "conditions": "treatment of mice"}, "[4]": {"tested_on": "nuclear factor kappa B (NF-κB)", "conditions": "HL-60-derived neutrophilic cells"}, "[5]": {"tested_on": "intercellular adhesion molecule-1", "conditions": "activated by TNF-α"}, "[6]": {"conditions": "daily supplementation, amounts greater than 100 mg"}}, "data": [{"molecule": "OC[C@H]1O[C@@H](Oc2cc3c(O)cc(O)cc3[o+]c2-c2ccc(O)c(O)c2)[C@H](O)[C@@H](O)[C@@H]1O", "note": "[Example C3G, cyanidin-3-glucoside]", "values": [{"measurement": "NF-κB dependent signaling pathway", "setting": "[1]", "result": "inhibit the NF-κB dependent signaling pathway"}]}, {"molecule": "Oc1cc(O)c2c(c1)O[C@H](c1ccc(O)c(O)c1)[C@H](O)[C@H]2c1c(O)cc(O)c2c1O[C@H](c1ccc(O)c(O)c1)[C@H](O)C2", "note": "[Procyanidin B(2)]", "values": [{"measurement": "arachidonic acid inflammatory reactions", "setting": "[2]", "result": "strongly inhibit arachidonic acid inflammatory reactions"}]}, {"molecule": "CC1=C(/C=C/C(C)=C/C=C/C(C)=C/C(=O)O)C(C)(C)CCC1", "note": "[all trans-retinoic acid (atRA), all trans-retinoic acid]", "values": [{"measurement": "production of IL-10", "setting": "[3]", "result": "enhancing the production of the immune modulating cytokine, IL-10"}, {"measurement": "production of pro-inflammatory cytokines (IL-12 and TNF-α)", "setting": "[3]", "result": "lower the production of pro-inflammatory cytokines"}]}, {"molecule": "C=CCS[S+]([O-])CC=C", "note": "(stereo not drawn) [allicin]", "values": [{"measurement": "TNF-α mediated T cell adhesion to extracellular matrix components and endothelial cells", "setting": "T cell", "result": "inhibition of TNF-α mediated T cell adhesion"}, {"measurement": "NF-κB binding to the nucleus", "setting": "NF-κB", "result": "significantly reduced NF-κB binding to the nucleus"}]}, {"molecule": "C=C1CC[C@@H]2[C@](C)(CO)[C@H](O)CC[C@@]2(C)[C@@H]1C/C=C1/C(=O)OC[C@H]1O", "note": "[andrographolide]", "values": [{"measurement": "binding of NF-κB to the DNA", "setting": "[4]", "result": "specifically affects the binding of nuclear factor kappa B (NF-κB) to the DNA"}, {"measurement": "expression of intercellular adhesion molecule-1", "setting": "[5]", "result": "inhibit expression of intercellular adhesion molecule-1"}]}, {"molecule": "O=C1O[C@H]([C@@H](O)CO)C(O)=C1O", "note": "[ascorbic acid, L-ascorbic acid]", "values": [{"measurement": "incidence, severity and integrated morbidity of the common cold", "setting": "[6]", "result": "lowers the incidence, severity and integrated morbidity of the common cold"}]}]}
